These results are taken from ChEMBL document CHEMBL1159175, “Thiophenoxy peptides: A new class of HIV replication inhibitors” (Bioorg Med Chem Lett, 1996).

In general, pIC50 refers to the negative decadic logarithm of the IC50, by convention in mol/L. Read a low pIC50 as a high IC50.

pIC50: −log10 of the molar value. Square brackets hold non-standard residues; d marks the D form. Peptide text beside a SMILES is read from it. * marks the point of attachment. Fmoc = O=C(OCC1c2ccccc2-c2ccccc21)*; Gly(SPh) = N[C@@H](Sc1ccccc1)C(=O)O

Data set [1] deals with MT4. The data set is described as follows: In vitro antiviral activity against HIV-1 replication in MT-4 cells was determined by 50% inhibition of syncytia formation: Inactive / toxic. The data set is classed as functional, cell-based, Homo sapiens.
For data set [2], the system named is MT4. The data set is described as follows: In vitro antiviral activity against HIV-1 replication in MT-4 cells was determined by 50% inhibition of syncytia formation. The data set is classed as functional, cell-based. To be noted: Homo sapiens.
The nature of data set [3]: Therapeutic index was determined by the ratio of ID50/IC50 (ID50: Dose required to cause death of 50% of uninfected MT-4 cells). Format: cell-based, MT4. Particulars: human, MT-4 cells (uninfected, for ID50); read-out: TI; call rule not given here.
Data set [4] relates to MT4. The data set is described as follows: In vitro antiviral activity against HIV-1 replication in MT-4 cells was determined by 50% inhibition of syncytia formation: Inactive. Format: functional, cell-based, Homo sapiens.

Regarding `CC[C@H](C)[C@H](NC(=O)OCC1c2ccccc2-c2ccccc21)C(=O)N[C@@H](CCCN=C(N)N)C(=O)N[C@@H](CCCCN)C(=O)N[C@H](C(=O)N[C@@H](CC(C)C)C(=O)N[C@@H](Sc1ccccc1)C(=O)N[C@@H](CC(C)C)C(=O)N[C@@H](CC(=O)O)C(=O)NCC(N)=O)[C@@H](C)CC` (Fmoc-IRKIL[Gly(SPh)]LDG-NH2), the IC50 entry in data set [1] is listed as “Toxic”.
In turn, `CC[C@H](C)[C@H](N)C(=O)N[C@@H](CCCN=C(N)N)C(=O)N[C@@H](CCCCN)C(=O)N[C@H](C(=O)N[C@@H](CC(C)C)C(=O)N[C@@H](Sc1ccccc1)C(=O)N[C@@H](CC(C)C)C(=O)N[C@@H](CC(=O)O)C(=O)NCC(N)=O)[C@@H](C)CC` (H-IRKIL[Gly(SPh)]LDG-NH2) showed a negative-log IC50 (pIC50) in data set [2] of 5.30. The selectivity ratio in data set [3] is 50.
For `C=CCOC(=O)C(NC(=O)C(CC(C)C)NC(=O)OC(C)(C)C)Sc1ccccc1` (stereo not given), the IC50 result in data set [4] is “Not Active”.
Same read-out and setting: the same measure for H-IRKILFLDGI-OH: “Not Active”; for `CC(C)CC(NC(=O)OC(C)(C)C)C(=O)NC(Sc1ccccc1)C(=O)O` (stereo not given): “Not Active”.
With `CC[C@H](C)[C@H](N)C(=O)N[C@@H](CCCN=C(N)N)C(=O)N[C@@H](CCCCN)C(=O)N[C@H](C(=O)N[C@@H](CC(C)C)C(=O)N[C@@H](Sc1ccccc1)C(=O)N[C@@H](CC(C)C)C(=O)N[C@@H](CC(=O)O)C(=O)NCC(=O)N[C@H](C(=O)O)[C@@H](C)CC)[C@@H](C)CC` (H-IRKIL[Gly(SPh)]LDGI-OH), in data set [2], the pIC50 is 5.00. The selectivity ratio in data set [3] amounted to 10.
For `CC[C@H](C)[C@H](NC(=O)CNC(=O)[C@H](CC(=O)O)NC(=O)[C@H](CC(C)C)NC(=O)[C@@H](NC(=O)[C@H](CC(C)C)NC(=O)[C@@H](NC(=O)[C@H](CCCCN)NC(=O)[C@H](CCCN=C(N)N)NC(=O)[C@@H](NC(=O)OCC1c2ccccc2-c2ccccc21)[C@@H](C)CC)[C@@H](C)CC)Sc1ccccc1)C(=O)O` (Fmoc-IRKIL[Gly(SPh)]LDGI-OH), the pIC50 in data set [2] is 4.00. For the same molecule, in data set [3], the selectivity ratio is 10.
